In patent US20230125964A1, “Methods for high throughput cryopreservation of cell clusters” (Regents of the University of Minnesota, priority 2021, published 2023):

How the values were obtained:
[1] = cited from earlier work
SC-beta islets = conditions: individual components and mixtures at same total concentration (44%), FIG. 3C
Description: The full-strength CPA used was 22 wt % EG+22 wt % DMSO prepared in RPMI medium. To load the CPA, islets were first incubated in 20% CPA (i.e., 4.4 wt % EG+4.4 wt % DMSO) for 10 min at 21° C., followed by 50% CPA for 10 min at 4° C. and in 100% CPA for 10 min at 4° C. The islets suspension was then transferred to the cryomesh placed on a wicking material (i.e., paper towel). The CPA cocktail was wicked away through the nylon mesh and islets remained on the cryomesh. Clumping of islets was avoided. The cryomesh was quickly plunged into liquid nitrogen and stored in a liquid nitrogen tank. […]
Quantitative viability was measured on dissociated islet cells. […] After 15 seconds of incubation, 10 μL of the suspension was pipetted onto the Countess Cell Counting Chamber Slides (Thermo Fischer Scientific; Cat #C10228), and viability was quantified using a Countess II FL cell counter (Invitrogen by Thermo Fisher Scientific; Cat #AMQAF1000).
To optimize the CPA formulation, three overall CPA concentrations (33%, 44%, and 54%) were tested consisting of PG, EG, DMSO, or mixtures thereof. Qualitative and quantitative live/dead staining was used to measure SC-beta islet viability for each CPA after loading and unloading (FIG. 2F) and after VR. Qualitative measurements were determined by confocal imaging of intact islets after staining with acridine orange (AO) and propidium iodide (PI). […]

SMILES	Transport: share achieving normoglycemia ([1]; canine islets to mice) [%]	Transport: time to normoglycemia ([1]; literature studies)	islet toxicity after CPA loading and unloading (SC-beta islets)
C[S+](C)[O-] [DMSO, dimethyl sulfoxide]	62	in 4 days	–
OCCO [EG, ethylene glycol]	–	–	least islet toxicity of the three individual components
